# Measured values: patent US7863271B2, “2-aminobenzoxazole carboxamides as 5HT3 modulators” (Albany Molecular Research, Inc., priority 2006, dated 2011)
# Where a name gives a salt, the structure may show the parent alone.
# Molecular target: T1, 5-HT3 (Homo sapiens, UniProt P46098)
# T1 sequence (P46098 24-478): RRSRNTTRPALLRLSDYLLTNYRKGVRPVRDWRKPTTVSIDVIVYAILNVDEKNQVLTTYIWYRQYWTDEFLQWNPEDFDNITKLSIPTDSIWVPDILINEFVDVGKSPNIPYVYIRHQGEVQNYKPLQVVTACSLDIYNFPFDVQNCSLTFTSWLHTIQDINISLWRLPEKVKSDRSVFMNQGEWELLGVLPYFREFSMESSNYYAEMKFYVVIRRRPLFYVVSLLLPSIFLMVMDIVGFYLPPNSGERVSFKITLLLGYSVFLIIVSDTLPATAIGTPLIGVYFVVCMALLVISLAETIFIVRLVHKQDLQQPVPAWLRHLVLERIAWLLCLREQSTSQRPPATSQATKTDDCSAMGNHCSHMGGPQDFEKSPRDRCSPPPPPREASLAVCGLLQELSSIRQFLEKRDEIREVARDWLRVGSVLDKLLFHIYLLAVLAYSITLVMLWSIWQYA
# Test: Compound affinity for the human 5-HT3 receptor (Assay B), SPA radioligand binding with [9-methyl-3H]BRL-43694
# Set-up: purchased Perkin Elmer
# Conditions: not given
# Procedure, shortened: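 Ten competitor concentrations in duplicate; specific binding (total minus nonspecific) fitted for IC50, converted to Ki by Cheng-Prusoff.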
row,Structure (SMILES),Ki
1,"CN1C[C@H]2C[C@H](NC(=O)c3cccc4oc(Nc5ccccc5)nc34)C[C@@H](C1)N2C [Example 52, Exo-N-(3,9-Dimethyl-3,9-diazabicyclo[3.3.1]nonan-7-yl)-2-(phenylamino)benzoxazole-4-carboxamide Hydrochloride]",27.6 nM

# Same assay, conditions: Assay B (method B unless otherwise annotated); read-out: 5-HT3 Ki
row,Structure (SMILES),Ki
1,"CN1[C@@H]2CCC[C@H]1C[C@@H](NC(=O)c1c(F)ccc3oc(N)nc13)C2 [Example 128, Endo-N-(9-Methyl-9-azabicyclo[3.3.1]nonan-3-yl)-2-amino-5-fluorobenzoxazole-4-carboxamide Hydrochloride]",124 nM
2,"CN1[C@@H]2CCC[C@H]1C[C@@H](NC(=O)c1cccc3oc(N4CCCCC4)nc13)C2 [Example 3, Endo-N-(9-Methyl-9-azabicyclo[3.3.1]non-3-yl)-2-(piperidin-1-yl)benzoxazole-4-carboxamide Hydrochloride]",10.4 nM
3,"C[C@H]1CN(S(C)(=O)=O)C[C@H](C)N1c1nc2c(C(=O)NC3CC4CCCC(C3)N4C)cccc2o1 (stereo partly drawn) [Example 131, Endo-N-(9-methyl-9-azabicyclo[3.3.1]nonan-3-yl)-2-((2S,6S-2,6-dimethyl-4-(methylsulfonyl)piperazin-1-yl)benzoxazole-4-carboxamide Hydrochloride]",1 nM
4,"CC(=O)N1C[C@H](C)N(c2nc3c(C(=O)NC4CC5CCCC(C4)N5C)cccc3o2)[C@@H](C)C1 (stereo partly drawn) [Example 110, Endo-N-(9-Methyl-9-azabicyclo[3.3.1]nonan-3-yl)-2-((2S,6S)-4-acetyl-2,6-dimethylpiperazin-1-yl)benzoxazole-4-carboxamide Hydrochloride]",2.2 nM
5,"C[C@H]1CNCCN1c1nc2c(C(=O)N[C@H]3C[C@H]4CCC[C@@H](C3)N4C)cccc2o1 [Example 41a, Endo-N-(9-Methyl-9-azabicyclo[3.3.1]nonan-3-yl)-2-[(S)-2-methylpiperazin-1-yl]benzoxazole-4-carboxamide Hydrochloride]",14.2 nM
6,"CN1CCN(c2nc3c(C(=O)N[C@H]4C[C@H]5CCC[C@@H](C4)N5C)cc(Cl)cc3o2)CC1 [Example 58, Endo-N-(9-methyl-9-azabicyclo[3.3.1]nonan-3-yl)-6-chloro-2-(4-methylpiperazin-1-yl)benzoxazole-4-carboxamide Hydrochloride]",11.9 nM
7,"CC(C)[C@H]1COCCN1c1nc2c(C(=O)NC3CC4CCCC(C3)N4C)cccc2o1 (stereo partly drawn) [Example 48, Endo-N-(9-Methyl-9-azabicyclo[3.3.1]nonan-3-yl)-2-((S)-3-isopropylmorpholino)benzoxazole-4-carboxamide Hydrochloride]",6 nM
8,"CN(C)CCN(C)c1nc2c(C(=O)N[C@H]3C[C@H]4CCC[C@@H](C3)N4C)cccc2o1 [Example 31, Endo-N-(9-methyl-9-azabicyclo[3.3.1]nonan-3-yl)-2-((2-(dimethylamino)ethyl)(methyl)amino)benzoxazole-4-carboxamide hydrochloride]",107 nM
9,"Cc1cc(C(=O)N[C@H]2C[C@H]3CCC[C@@H](C2)N3C)c2nc(N)oc2c1 [Example 129, Endo-2-amino-6-methyl-N-(9-Methyl-9-azabicyclo[3.3.1]nonan-3-yl)benzoxazole-4-carboxamide Hydrochloride]",10.7 nM
10,"Nc1nc2c(C(=O)NC3CN4CCC3CC4)c(F)ccc2o1 [Example 139, (S)—N-(quinulidin-8-yl)-2-amino-5-fluorobenzoxazole-4-carboxamide Hydrochloride]",67.4 nM
11,"Nc1nc2c(C(=O)NC3CN4CCC3CC4)ccc(F)c2o1 [Example 112, (S)—N-(quinulidin-8-yl)-2-amino-7-fluorobenzoxazole-4-carboxamide Hydrochloride]",33.3 nM
12,"O=C(N[C@@H]1CN2CCC1CC2)c1cccc2oc(Nc3ccncc3)nc12 [Example 28, (S)—N-(quinuclidine-8-yl)-2-(pyridin-4-ylamino)benzoxazole-4-carboxamide Dihydrochloride]",5.3 nM
13,"CN1[C@@H]2CCC[C@H]1C[C@@H](NC(=O)c1cc(F)cc3oc(N)nc13)C2 [Example 121, Endo-2-amino-6-fluoro-N-(9-Methyl-9-azabicyclo[3.3.1]nonan-3-yl)benzoxazole-4-carboxamide Hydrochloride]",9 nM
14,"CC[C@@H]1COCCN1c1nc2c(C(=O)NC3CC4CCCC(C3)N4C)cccc2o1 (stereo partly drawn) [Example 151, Endo-N-(9-Methyl-9-azabicyclo[3.3.1]nonan-3-yl)-2-((R)-3-ethylmorpholino)-benzoxazole-4-carboxamide Hydrochloride]",34 nM
15,"CN1[C@@H]2CCC[C@H]1C[C@@H](NC(=O)c1cccc3oc(=O)[nH]c13)C2 [Example 56, Endo-N-(9-Methyl-9-azabicyclo[3.3.1]nonan-3-yl)-2-oxo-2,3-dihydrobenzoxazole-4-carboxamide Hydrochloride]",72 nM
16,"CC(C)[C@@H]1COCCN1c1nc2c(C(=O)NC3CC4CCCC(C3)N4C)cccc2o1 (stereo partly drawn) [Example 152, Endo-N-(9-Methyl-9-azabicyclo[3.3.1]nonan-3-yl)-2-((R)-3-isopropylmorpholino)benzoxazole-4-carboxamide Hydrochloride]",75 nM
17,"C[C@H]1CN(C(=O)C(C)(C)C)C[C@H](C)N1c1nc2c(C(=O)NC3CC4CCCC(C3)N4C)cccc2o1 (stereo partly drawn) [Example 130, Endo-N-(9-methyl-9-azabicyclo[3.3.1]nonan-3-yl)-2-((2S,6S)-2,6-dimethyl-4-pivaloylpiperazin-1-yl)benzoxazole-4-carboxamide Hydrochloride]",2.8 nM
18,"CN1CC2CC(NC(=O)c3cccc4oc(N5CCOCC5)nc34)CC(C1)N2C (stereo not drawn) [Example 43, Exo-N-(3,9-Dimethyl-3,9-diazabicyclo[3.3.1]nonan-7-yl)-2-morpholinobenzoxazole-4-carboxamide Hydrochloride]",480 nM
19,"C[C@H]1CNC[C@H](C)N1c1nc2c(C(=O)NC3CN4CCC3CC4)ccc(F)c2o1 (stereo partly drawn) [Example 118, (S)—N-(Quinulidin-8-yl)-2-((2S,6S)-2,6-dimethylpiperazine-1-yl)-7-fluorobenzoxazole-4-carboxamide hydrochloride]",26.8 nM
20,"C[C@H]1CN(C(=O)N2CCCC2)C[C@H](C)N1c1nc2c(C(=O)NC3CC4CCCC(C3)N4C)cccc2o1 (stereo partly drawn) [Example 140, Endo-N-(9-methyl-9-azabicyclo[3.3.1]nonan-3-yl)-2-((2S,6S)-2,6-dimethyl-4-(pyrrolidine-1-carbonyl)piperazin-1-yl)benzoxazole-4-carboxamide hydrochloride]",2.2 nM
21,"CN(C)C(=O)CNc1nc2c(C(=O)N[C@H]3C[C@H]4CCC[C@@H](C3)N4C)cccc2o1 [Example 47, Endo-N-(9-Methyl-9-azabicyclo[3.3.1]nonan-3-yl)-2-(2-(dimethylamino)-2-oxoethylamino)benzoxazole-4-carboxamide Dihydrochloride]",137 nM
22,"CC(C)N(C)c1nc2c(C(=O)N[C@@H]3CN4CCC3CC4)cccc2o1 [Example 85, (S)—N-(quinuclidine-8-yl)-2-(isopropyl(methyl)amino)benzoxazole-4-carboxamide Hydrochloride]",28.9 nM
23,"O=C(N[C@@H]1CN2CCC1CC2)c1cccc2oc(N3CCNCC3)nc12 [Example 22, (S)—N-(quinuclidine-8-yl)-2-(piperazin-1-yl)benzoxazole-4-carboxamide Dihydrochloride]",321 nM
24,"CN1[C@@H]2CCC[C@H]1C[C@@H](NC(=O)c1cccc3oc(NC4CNC4)nc13)C2 [Example 16, Endo-N-(9-Methyl-9-azabicyclo[3.3.1]non-3-yl)-2-(azetidin-3-ylamino)benzoxazole-4-carboxamide Dihydrochloride]",179 nM
25,"CC[C@H]1COCCN1c1nc2c(C(=O)NC3CC4CCCC(C3)N4C)cc(Cl)cc2o1 (stereo partly drawn) [Example 62, Endo-N-(9-Methyl-9-azabicyclo[3.3.1]nonan-3-yl)-6-chloro 2-((S-3-ethylmorpholino)benzoxazole-4-carboxamide Hydrochloride]",6.3 nM
26,"CN(C)c1nc2c(C(=O)N[C@H]3C[C@H]4CCC[C@@H](C3)N4C)cccc2o1 [Example 7, Endo-N-(9-Methyl-9-azabicyclo[3.3.1]non-3-yl)-2-(dimethylamino)benzoxazole-4-carboxamide Hydrochloride]",6.1 nM
27,"COc1ccc(Nc2nc3c(C(=O)N[C@H]4C[C@H]5CCC[C@@H](C4)N5C)cccc3o2)cc1 [Example 59, Endo-N-(9-methyl-9-azabicyclo[3.3.1]nonan-3-yl)-2-(4-methoxyphenylamino)benzoxazole-4-carboxamide Hydrochloride]",7.6 nM
28,"C[C@@H]1CNCCN1c1nc2c(C(=O)N[C@H]3C[C@H]4CCC[C@@H](C3)N4C)cccc2o1 [Example 41b, Endo-N-(9-Methyl-9-azabicyclo[3.3.1]nonan-3-yl)-2-[(R)-2-methylpiperazin-1-yl]benzoxazole-4-carboxamide Hydrochloride]",125 nM
29,"COCCCNc1nc2c(C(=O)NC3CC4CCCC(C3)N4C)cccc2o1 (stereo not drawn) [Example 39, Endo-N-(9-Methyl-9-azabicyclo[3.3.1]nonan-3-yl)-2-(3-methoxypropylamino)benzoxazole-4-carboxamide Hydrochloride]",13.2 nM
30,"Cc1nc[nH]c1CNC(=O)c1cc(Cl)cc2oc(N)nc12 [Example 145, N-((4-methyl-1H-imidazol-5-yl)methyl)-2-amino-6-chlorobenzoxazole-4-carboxamide]",127 nM
